Common to all, as to assay type: cell-based
Data set [1] relates to human apolipoprotein(a) mRNA. The data set is described as follows: Apolipoprotein(a) mRNA expression in primary human hepatocytes, real-time PCR. The settings on record: primary human hepatocytes, 24 hours. As to the method: Primary human hepatocytes (InVitro Technologies, Baltimore, Md.), cultured and transfected as described herein, were treated with 5, 10, 50 or 150 nM of ISIS 271009 (SEQ ID NO: 319), 281625 (SEQ ID NO: 224), 301012 (SEQ ID NO: 247) or 301027 (SEQ ID NO: 262). Cells were also treated with 50 or 150 nM of the control oligonucleotides ISIS 113529 (SEQ ID NO: 859) or ISIS 13650 (SEQ ID NO: 806). Untreated cells served as a control. Following 24 hours of oligonucleotide treatment, apolipoprotein(a) mRNA expression was measured by quantitative real-time PCR as described in other examples herein.
Probes and primers to human apolipoprotein(a) were designed to hybridize to a human apolipoprotein(a) sequence, using published sequence information (GenBank accession number NM_005577.1, incorporated herein as SEQ ID NO: 860). For human apolipoprotein(a) the PCR primers were: […]
forward primer: […] (SEQ ID NO: 861)
reverse primer: TGCGTCTGAGCATTGCGT (SEQ ID NO: 862) and the PCR probe was: FAM-[…]-TAMRA (SEQ ID NO: 863) where FAM is the fluorescent dye and TAMRA is the quencher dye.
Data are the average of three experiments and are expressed as percent inhibition relative to untreated controls.
On the technique in general: Real-time PCR tracks product formation cycle by cycle.

Data set [2] relates to Cynomolgous monkey apolipoprotein B mRNA. As to the kind of experiment: Apolipoprotein B mRNA in primary Cynomolgous monkey hepatocytes, real-time PCR. Particulars: primary Cynomolgous monkey hepatocytes, 24 hours (Table 46). The gist of the method: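 Primary cynomolgus hepatocytes treated with antisense oligonucleotides at 10, 50, 150 or 300 nM (some sets 10–150 nM) for 24 or 48 h, depending on the set. mRNA quantified by real-time PCR using human apoB and GAPDH primers/probes. Values are percent inhibition normalized to untreated cells, averaged over 2–6 experiments.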

The test system of another data set is lipoprotein(a). As to the kind of experiment: Lipoprotein(a) particle secretion from primary human hepatocytes, ELISA. The settings on record: 150 nM, 24 hours. As to the method:
Primary human hepatocytes (InVitro Technologies, Baltimore, Md.), cultured and transfected as described herein, were treated for 24 hours with 50 or 150 nM of ISIS 271009 (SEQ ID NO: 319), 281625 (SEQ ID NO: 224), 301012 (SEQ ID NO: 247) or 301027 (SEQ ID NO: 262). Cells were also treated with 150 nM of the control oligonucleotides ISIS 113529 (SEQ ID NO: 859) or ISIS 13650 (SEQ ID NO: 806). Untreated cells served as a control. Following 24 hours of oligonucleotide treatment, the amount of lipoprotein(a) in the culture medium collected from the treated cells was measured using a commercially available ELISA kit (ALerCHEK Inc., Portland, Me.). The results are the average of three experiments and are expressed as percent change in lipoprotein(a) secretion relative to untreated controls.
Background: An ELISA detects its analyte on a solid surface through an enzyme-linked reagent.

For the next data set, the system named is apolipoprotein B protein. The data set is described as follows: Apolipoprotein B protein secreted from primary Cynomolgous monkey hepatocytes, ELISA. Particulars: primary Cynomolgous hepatocytes. As to the method: Apolipoprotein B protein secreted from primary Cynomolgous hepatocytes treated with 150 and 300 nM of oligonucleotide was measured by ELISA using an apolipoprotein B protein specific kit (ALerCHEK Inc., Portland, Me.). Each result represents the average of 3 experiments.
Apolipoprotein B protein secreted primary Cynomolgous hepatocytes treated with 50 and 150 nM of ISIS 315089 and ISIS 281625 was measured by ELISA using an apolipoprotein B protein specific kit (ALerCHEK Inc., Portland, Me.). Each result represents the average of 3 experiments.
Apolipoprotein B protein secreted from primary Cynomolgous hepatocytes treated with 50 and 150 nM of ISIS 271009 and ISIS 301027 was measured by ELISA using an apolipoprotein B protein specific kit (ALerCHEK Inc., Portland, Me.). Each result represents the average of 3 experiments.

The subject of data set [3] is human apolipoprotein B mRNA. The data set is described as follows: Inhibition of human apolipoprotein B mRNA levels in HepG2 cells, quantitative real-time PCR. The settings on record: for % INHIB (inhibition of human apolipoprotein B mRNA levels): HepG2 cells treated with 150 nM of compound, averages from two experiments, quantitative real-time PCR; for % inhibition 37 nM / % inhibition 75 nM / % inhibition 150 nM / % inhibition 300 nM: Table 19 dose response, HepG2 cells, normalized to untreated control. The gist of the method: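 Apolipoprotein B transcript was quantified by one-step TaqMan RT-PCR, normalized to GAPDH or RiboGreen RNA, and expressed as percent inhibition against an untreated-sample standard curve. HepG2 cells were harvested 16-24 h after oligonucleotide exposure, which was delivered with 3.75 μg/mL Lipofectin over 4-7 h at 80% confluency.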

The test system of data set [4] is human apolipoprotein B mRNA. The data set is described as follows: Inhibition of apolipoprotein B mRNA by dsRNAs in HepG2 cells. The settings on record: 150 nM with 3.75 μg/mL LIPOFECTIN
As to the method: In accordance with the present invention, a series of nucleic acid duplexes comprising the antisense compounds of the present invention and their complements were designed to target apolipoprotein B and are shown in Table 42. All compounds in Table 42 are oligoribonucleotides 20 nucleotides in length with phosphodiester internucleoside linkages (backbones) throughout the compound. The compounds were prepared with blunt ends. […] These sequences are shown to contain uracil (U) but one of skill in the art will appreciate that uracil (U) is generally replaced by thymine (T) in DNA sequences. “Targer site” indicates the first (5′-most) nucleotide number on the particular target sequence to which the compound binds. A subset of the compounds in Table 42 are the RNA equivalents of DNA antisense oligonucleotides described herein, and, where applicable, this is noted by the ISIS # of the DNA oligonucleotide in the column “RNA equivalent of ISIS #”.
The dsRNA compounds in Table 42 were tested for their effects on human apolipoprotein mRNA in HepG2 cells. HepG2 cells were treated with 100 nM of dsRNA compounds mixed with 5 μg/mL LIPOFECTIN (Invitrogen Corporation, Carlsbad, Calif.) for a period of 16 hours. In the same experiment, HepG2 cells were also treated with 150 nM of subset of the antisense oligonucleotides described herein mixed with 3.75 μg/mL LIPOFECTIN; these compounds are listed in Table 43. Control oligonucleotides included ISIS 18078 ([…], SEQ ID NO: 888). ISIS 18078 is a chimeric oligonucleotide (“gapmer”) 20 nucleotides in length, composed of a central “gap” region consisting of 9 2′-deoxynucleotides, which is flanked on the 5′ and 3′ ends by a five-nucleotide “wing” and a six-nucleotide “wing”, respectively. The wings are composed of 2′-methoxyethyl (2′-MOE)nucleotides. The internucleoside (backbone) linkages are phosphorothioate (P═S) throughout the oligonucleotide. All cytidines are 5-methylcytidines. The duplex of ISIS 263188 ([…], SEQ ID NO: 889) and its complement was also used as a control. ISIS 263188 is an oligoribonucleotide 21 nucleotides in length with the 2 nucleotides on the 3′ end being oligodeoxyribonucleotides (TT) and with phosphodiester internucleoside linkages (backbones) throughout the compound.
Cells were treated for 4 hours, after which human apolipoprotein B mRNA expression was measured as described by examples herein. Results were normalized to untreated control cells, which were not treated with LIPOFECTIN or oligonucleotide.

In the oligonucleotide strings, read from the 5' end, every base follows the letter of its sugar. An asterisk marks phosphorothioate; unmarked linkages are phosphodiester. Other units and linkages are bracketed, terminal groups are in braces. A string of capitals states the bases alone. e = 2'-O-(2-methoxyethyl) (MOE); [5mC] = 5-methylcytosine; d = 2'-deoxy (DNA)

As to “13650 (TCCCGCCTGTGACATGCATT; listed as DNA, chemistry not given here) [compound 13650]”, the results for the “% Change in apolipoprotein(a) mRNA expression following antisense inhibition of apolipoprotein B” value in data set [1] (50 nM) and in data set [1] (150 nM) were −68% and −37%, respectively. In addition, the “% Inhibition of apolipoprotein B mRNA” value is recorded as “+50%” in data set [2] (150 nM, "+" = expression increased) and 33% in data set [2] (300 nM). In the data set on lipoprotein(a), the “% Change in lipoprotein(a) secretion” value is on record as “+14%”. For the same substance, the “% Reduction of monkey apolipoprotein B protein secretion” value in the data set with apolipoprotein B protein (50 nM (Table 47)) is on record as 16%; in the data set with apolipoprotein B protein (150 nM (Table 47)) it was 13%; in the data set on apolipoprotein B protein (150 nM (Table 49), "+" = secretion increased), “+1%”.
“301021 (eG*eG*eT*e[5mC]*e[5mC]*dA*dT*d[5mC]*dG*d[5mC]*d[5mC]*dA*dG*d[5mC]*dT*eG*e[5mC]*eG*eG*eT; antisense) [compound 301021]”: the “% INHIB (inhibition of human apolipoprotein B mRNA levels)” value in data set [3] is reported as 89%. In addition, the “% Inhibition of apolipoprotein B mRNA” value in data set [4] stood at 67%.
With “301038 (eG*e[5mC]*e[5mC]*eA*eG*d[5mC]*dT*dT*dT*dG*dG*dT*dG*d[5mC]*dA*eG*eG*eT*e[5mC]*e[5mC]; antisense) [compound 301038]”, the “% INHIB (inhibition of human apolipoprotein B mRNA levels)” value in data set [3] worked out at 86%. Moreover, in data set [4], the “% Inhibition of apolipoprotein B mRNA” value is recorded as 84%.
Turning to “301030 (eA*eG*eG*e[5mC]*eT*dG*dG*d[5mC]*dT*d[5mC]*dA*d[5mC]*dT*dG*dT*eA*eT*eG*eG*eT; antisense) [compound 301030]”, in data set [3], the “% INHIB (inhibition of human apolipoprotein B mRNA levels)” value is 90%, the “% inhibition 37 nM” value is 64%, the “% inhibition 75 nM” value was 75% and the “% inhibition 150 nM” value came to 87%. In data set [3], the “% inhibition 300 nM” value is reported as 92%. The “% Inhibition of apolipoprotein B mRNA” value in data set [4] turned out to be 70%.
On to “301037 (e[5mC]*eA*eG*e[5mC]*eT*dT*dT*dG*dG*dT*dG*d[5mC]*dA*dG*dG*eT*e[5mC]*e[5mC]*eA*eG; antisense) [compound 301037]”, for which, in data set [3], the “% INHIB (inhibition of human apolipoprotein B mRNA levels)” value is reported as 90%, the “% inhibition 37 nM” value was determined as 73%, the “% inhibition 75 nM” value is reported as 85% and the “% inhibition 150 nM” value amounted to 89%. In addition, in data set [3], the “% inhibition 300 nM” value came to 96%. Also, the “% Inhibition of apolipoprotein B mRNA” value in data set [4] turned out to be 80%.
Consider “301045 (eA*eG*e[5mC]*eA*eA*dA*dA*dT*dA*dA*d[5mC]*dT*d[5mC]*dA*dG*eA*eT*e[5mC]*e[5mC]*eT; antisense) [compound 301045]”, for which, in data set [3], the “% INHIB (inhibition of human apolipoprotein B mRNA levels)” value is 90%, the “% inhibition 37 nM” value is given as 77%, the “% inhibition 75 nM” value worked out at 86% and the “% inhibition 150 nM” value turned out to be 94%. In addition, the “% inhibition 300 nM” value in data set [3] is listed as 98%. Further, the “% Inhibition of apolipoprotein B mRNA” value in data set [4] was found to be 77%.
As to “301014 (e[5mC]*eA*eG*e[5mC]*e[5mC]*d[5mC]*d[5mC]*dG*d[5mC]*dA*dG*dG*dT*d[5mC]*d[5mC]*e[5mC]*eG*eG*eT*eG; antisense) [compound 301014]”, in data set [3], the “% INHIB (inhibition of human apolipoprotein B mRNA levels)” value came to 88%, the “% inhibition 37 nM” value stood at 75%, the “% inhibition 75 nM” value amounted to 90% and the “% inhibition 150 nM” value is reported as 96%. Further, the “% inhibition 300 nM” value in data set [3] stood at 98%. The “% Inhibition of apolipoprotein B mRNA” value in data set [4] was found to be 88%.
On to “301029 (eG*eG*e[5mC]*eT*eG*dG*d[5mC]*dT*d[5mC]*dA*d[5mC]*dT*dG*dT*dA*eT*eG*eG*eT*eT; antisense) [compound 301029]”, for which, in data set [3], the “% INHIB (inhibition of human apolipoprotein B mRNA levels)” value was determined as 90%, the “% inhibition 37 nM” value amounted to 54%, the “% inhibition 75 nM” value was 67% and the “% inhibition 150 nM” value stood at 79%. In addition, the “% inhibition 300 nM” value in data set [3] worked out at 85%. For the same substance, the “% Inhibition of apolipoprotein B mRNA” value in data set [4] was 77%.
On to “301028 (eG*eG*e[5mC]*eT*e[5mC]*dA*d[5mC]*dT*dG*dT*dA*dT*dG*dG*dT*eT*eT*eT*eA*eT; antisense) [compound 301028]”, for which, in data set [3], the “% INHIB (inhibition of human apolipoprotein B mRNA levels)” value came to 93%, the “% inhibition 37 nM” value was 70%, the “% inhibition 75 nM” value is reported as 79% and the “% inhibition 150 nM” value came to 85%. In data set [3], the “% inhibition 300 nM” value came out at 92%. Moreover, the “% Inhibition of apolipoprotein B mRNA” value in data set [4] stood at 85%.

The record behind these values is patent US7803930B2, “Antisense modulation of apolipoprotein B-expression” (Isis Pharmaceuticals, Inc., priority 2002, dated 2010).
